According to ChEMBL document CHEMBL1201862, “PubChem BioAssay data set” (2004):
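Compound exposure: 48 hours, 5 concentrations, 96-well plates. GI50 is the concentration that inhibits growth by half.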 Active and inactive are the calls of the source. Rule as the data show it: active = GI50 up to about 1.1 µM and inactive = higher.

Columns and labels:
Assay in all cases: DTP human tumour cell line panel, 48 h
SN12C = system: SN12C
HOP-62 = system: HOP-62
LOX IMVI = system: LOX IMVI
SNB-19 = system: SNB-19
SF-539 = system: SF-539
A498 = system: A498
NCI/ADR-RES = system: NCI/ADR-RES
CCRF-CEM = system: CCRF-CEM
HCC 2998 = system: HCC 2998
COLO 205 = system: COLO 205
NCI-H226 = system: NCI-H226
U-251 = system: U-251
786-0 = system: 786-0
NCI-H460 = system: NCI-H460
UACC-257 = system: UACC-257
SR = system: SR
RXF 393 = system: RXF 393
MCF7 = system: MCF7
UO-31 = system: UO-31
Hs-578T = system: Hs-578T

| SMILES | GI50 (SN12C) | GI50 (HOP-62) | GI50 (LOX IMVI) | GI50 (SNB-19) | GI50 (SF-539) | GI50 (A498) | GI50 (NCI/ADR-RES) | GI50 (CCRF-CEM) | GI50 (HCC 2998) | GI50 (COLO 205) | GI50 (NCI-H226) | GI50 (U-251) | GI50 (786-0) | GI50 (NCI-H460) | GI50 (UACC-257) | GI50 (SR) | GI50 (RXF 393) | GI50 (MCF7) | GI50 (UO-31) | GI50 (Hs-578T) |
| --- | --- | --- | --- | --- | --- | --- | --- | --- | --- | --- | --- | --- | --- | --- | --- | --- | --- | --- | --- | --- |
| O=C(Oc1ccccc1)c1cc2cc(CCl)ccc2oc1=O | 23.1 µM (inactive) | 26.5 µM (inactive) | 49.4 µM (inactive) | 71.6 µM (inactive) | 30.6 µM (inactive) | 19.1 µM (inactive) | 30 µM (inactive) | 24.3 µM (inactive) | 20.5 µM (inactive) | 17.8 µM (inactive) | > 100 µM (inactive) | 44.6 µM (inactive) | 19.4 µM (inactive) | 20.3 µM (inactive) | 11.6 µM (inactive) | 28.1 µM (inactive) | 13.5 µM (inactive) | 20.1 µM (inactive) | 20.4 µM (inactive) | 16.9 µM (inactive) |
| O=C(O)CSc1ccccc1C(=O)O | > 100 µM (inactive) | > 100 µM (inactive) | > 100 µM (inactive) | > 100 µM (inactive) | > 100 µM (inactive) | > 100 µM (inactive) | > 100 µM (inactive) | > 100 µM (inactive) | 29.6 µM (inactive) | > 100 µM (inactive) | 99.1 µM (inactive) | > 100 µM (inactive) | > 100 µM (inactive) | 20.7 µM (inactive) | 15 µM (inactive) | > 100 µM (inactive) | > 100 µM (inactive) | > 100 µM (inactive) | > 100 µM (inactive) | > 100 µM (inactive) |
| C(=N/Nc1ccc(-c2nc3ccccc3[nH]2)cc1)/c1c(-c2ccccc2)[nH]c2ccccc12 |  | 0.319 µM (active) | 0.759 µM (active) |  | 0.444 µM (active) | 0.516 µM (active) | 0.286 µM (active) | 0.443 µM (active) | 0.168 µM (active) |  | 0.408 µM (active) | 0.322 µM (active) | 0.465 µM (active) | 0.315 µM (active) | 0.678 µM (active) | 0.12 µM (active) | 1.6 µM (inactive) | 0.361 µM (active) | 0.405 µM (active) | 0.267 µM (active) |
| O=C(Cc1ccccc1)NCCCN(CCCCN(CCCNC(=O)Cc1ccccc1)C(=O)OCc1ccccc1)C(=O)OCc1ccccc1 | > 100 µM (inactive) | > 100 µM (inactive) | > 100 µM (inactive) |  | > 100 µM (inactive) | > 75.9 µM (inactive) | > 100 µM (inactive) | > 20.3 µM (inactive) | > 38.1 µM (inactive) | 6.07 µM (inactive) | > 100 µM (inactive) | > 100 µM (inactive) | > 100 µM (inactive) | > 19.9 µM (inactive) | > 100 µM (inactive) | 30.4 µM (inactive) | > 31.4 µM (inactive) | > 81.1 µM (inactive) | 1.66 µM (inactive) | > 100 µM (inactive) |
| O=C1c2ccccc2C(=O)c2c(/C=C\N3CCCCC3)ccnc21 | 1.4 µM (inactive) | 3.81 µM (inactive) | 0.337 µM (active) | 4.91 µM (inactive) | 3.12 µM (inactive) | 8.99 µM (inactive) | 3.6 µM (inactive) | 3.78 µM (inactive) | 2.72 µM (inactive) | 3.51 µM (inactive) | 2.7 µM (inactive) | 2.99 µM (inactive) | 6.35 µM (inactive) | 1.3 µM (inactive) | 1.02 µM (active) | 8.36 µM (inactive) | 8.53 µM (inactive) | 0.869 µM (active) | 2.01 µM (inactive) | 1.23 µM (inactive) |
| Cc1c(-c2ccccc2)c(C#N)c2nnn(C3CCCCC3)c(=O)n12 | 98.2 µM (inactive) | 14.7 µM (inactive) | > 100 µM (inactive) | 66.5 µM (inactive) | 47.4 µM (inactive) | 65.8 µM (inactive) | > 100 µM (inactive) | > 100 µM (inactive) | > 100 µM (inactive) | 88.1 µM (inactive) | 35.8 µM (inactive) | 53.2 µM (inactive) | 24.5 µM (inactive) | > 100 µM (inactive) | > 100 µM (inactive) | 24.8 µM (inactive) | 19.8 µM (inactive) | > 100 µM (inactive) | 0.74 µM (active) | 97.9 µM (inactive) |
| O=C(CNc1ccc(Cl)cc1)Nn1c(-c2ccccc2)nc2ccccc2c1=O | 7.43 µM (inactive) | 14.9 µM (inactive) | 1.3 µM (inactive) | 10.8 µM (inactive) | 4.37 µM (inactive) | 14.9 µM (inactive) | 6.79 µM (inactive) | 2.04 µM (inactive) | 11.1 µM (inactive) | 6.82 µM (inactive) | 5.52 µM (inactive) | 3.47 µM (inactive) | 4.18 µM (inactive) | 8.79 µM (inactive) | 12.8 µM (inactive) | 3.28 µM (inactive) | 6.55 µM (inactive) | 3.32 µM (inactive) | 6.75 µM (inactive) | 18.4 µM (inactive) |
| O=[N+]([O-])/C(Cl)=C(/C(Cl)=C(Cl)Cl)N1CCCCC1 | 14.2 µM (inactive) | 22.6 µM (inactive) | 7.33 µM (inactive) | 24.5 µM (inactive) | 16.4 µM (inactive) | 18.4 µM (inactive) | 4.06 µM (inactive) | 4.73 µM (inactive) | 15.9 µM (inactive) | 10 µM (inactive) | 13.9 µM (inactive) | 11.8 µM (inactive) | 11.3 µM (inactive) | 18.7 µM (inactive) |  | 3.16 µM (inactive) | 7.26 µM (inactive) | 0.444 µM (active) | 8.15 µM (inactive) | 5.06 µM (inactive) |
| COC(=O)c1c(O)ccc2c1c1c(n2Cc2ccc(Cl)cc2Cl)C(=O)c2ccccc2C1=O | 2.21 µM (inactive) | 9.18 µM (inactive) | 12.7 µM (inactive) | 15.7 µM (inactive) | 14.4 µM (inactive) | 18.1 µM (inactive) | 10.7 µM (inactive) | 4.12 µM (inactive) | 3.48 µM (inactive) | 11.2 µM (inactive) | 10.9 µM (inactive) | 10.8 µM (inactive) | 10.1 µM (inactive) | 3.27 µM (inactive) | 15.2 µM (inactive) | 3.44 µM (inactive) | 4.09 µM (inactive) | 4.09 µM (inactive) | 10.5 µM (inactive) | 9.62 µM (inactive) |
| CC1=NN(c2nc(N)nc(CF)n2)C(C)(C)C1 |  | > 100 µM (inactive) | > 100 µM (inactive) | > 100 µM (inactive) | > 100 µM (inactive) | > 100 µM (inactive) | > 100 µM (inactive) | > 100 µM (inactive) | > 100 µM (inactive) | > 100 µM (inactive) | > 100 µM (inactive) | > 100 µM (inactive) | > 100 µM (inactive) | > 100 µM (inactive) | > 100 µM (inactive) | > 100 µM (inactive) | > 100 µM (inactive) | > 100 µM (inactive) | > 100 µM (inactive) | > 100 µM (inactive) |
| CC1(C)O[C@@H]2[C@@H](COC(=O)c3ccccc3)C[C@@H](C#N)[C@@H]2O1 | > 100 µM (inactive) | > 100 µM (inactive) | > 100 µM (inactive) | > 100 µM (inactive) | > 100 µM (inactive) | > 100 µM (inactive) | > 100 µM (inactive) | > 100 µM (inactive) | > 100 µM (inactive) | > 100 µM (inactive) | > 100 µM (inactive) | > 100 µM (inactive) | > 100 µM (inactive) | > 100 µM (inactive) |  | > 100 µM (inactive) | > 100 µM (inactive) | > 100 µM (inactive) | > 100 µM (inactive) | 29.2 µM (inactive) |
| CCOC(=O)Cn1nnc2ccc(Nc3nc4ccccc4nc3C(=O)OCC)cc21 | > 100 µM (inactive) | 38.3 µM (inactive) | > 100 µM (inactive) | 69.5 µM (inactive) | 31.3 µM (inactive) | > 100 µM (inactive) | > 100 µM (inactive) | > 100 µM (inactive) | 87.3 µM (inactive) | > 100 µM (inactive) | > 100 µM (inactive) | 74 µM (inactive) | 89.3 µM (inactive) | > 100 µM (inactive) | > 100 µM (inactive) | > 100 µM (inactive) | 37.9 µM (inactive) | > 100 µM (inactive) | 30.1 µM (inactive) | 33.5 µM (inactive) |
| OCCOCCO[P+]1(OCCOCCO)n2c3ccc2C(c2ccccc2)=C2C=CC(=N2)C(c2ccccc2)=c2ccc(n21)=C(c1ccccc1)C1=NC(=C3c2ccccc2)C=C1 | 0.11 µM (active) | 0.379 µM (active) | 0.0989 µM (active) | < 0.01 µM (active) | 0.188 µM (active) | 8.57 µM (inactive) | 7.14 µM (inactive) | 0.0231 µM (active) | 0.0378 µM (active) | 0.0206 µM (active) | 0.162 µM (active) |  | 0.179 µM (active) | 0.076 µM (active) | 0.0268 µM (active) | 1 µM (active) | 0.548 µM (active) | 0.109 µM (active) | 1.86 µM (inactive) | 0.127 µM (active) |
| CCN(CC)/[N+]([O-])=N/OCOC(C)=O | > 100 µM (inactive) | > 100 µM (inactive) | > 100 µM (inactive) | > 100 µM (inactive) | > 100 µM (inactive) | > 100 µM (inactive) | > 100 µM (inactive) | 94.4 µM (inactive) | > 100 µM (inactive) | > 100 µM (inactive) | > 100 µM (inactive) | > 100 µM (inactive) | > 100 µM (inactive) | > 100 µM (inactive) | > 100 µM (inactive) | 43.4 µM (inactive) | > 100 µM (inactive) | > 100 µM (inactive) | > 100 µM (inactive) | > 100 µM (inactive) |
